Source: US10428080B2, “TBK/IKK inhibitor compounds and uses thereof” (Merck Patent GmbH, priority 2015, dated 2019)

Assays:
IKKε = biological target: T1, IKKε (Homo sapiens, UniProt Q14164); assay: IKKe Biochemical Assay; settings: read-out: IKKε IC50
T1 sequence (Q14164 1-716): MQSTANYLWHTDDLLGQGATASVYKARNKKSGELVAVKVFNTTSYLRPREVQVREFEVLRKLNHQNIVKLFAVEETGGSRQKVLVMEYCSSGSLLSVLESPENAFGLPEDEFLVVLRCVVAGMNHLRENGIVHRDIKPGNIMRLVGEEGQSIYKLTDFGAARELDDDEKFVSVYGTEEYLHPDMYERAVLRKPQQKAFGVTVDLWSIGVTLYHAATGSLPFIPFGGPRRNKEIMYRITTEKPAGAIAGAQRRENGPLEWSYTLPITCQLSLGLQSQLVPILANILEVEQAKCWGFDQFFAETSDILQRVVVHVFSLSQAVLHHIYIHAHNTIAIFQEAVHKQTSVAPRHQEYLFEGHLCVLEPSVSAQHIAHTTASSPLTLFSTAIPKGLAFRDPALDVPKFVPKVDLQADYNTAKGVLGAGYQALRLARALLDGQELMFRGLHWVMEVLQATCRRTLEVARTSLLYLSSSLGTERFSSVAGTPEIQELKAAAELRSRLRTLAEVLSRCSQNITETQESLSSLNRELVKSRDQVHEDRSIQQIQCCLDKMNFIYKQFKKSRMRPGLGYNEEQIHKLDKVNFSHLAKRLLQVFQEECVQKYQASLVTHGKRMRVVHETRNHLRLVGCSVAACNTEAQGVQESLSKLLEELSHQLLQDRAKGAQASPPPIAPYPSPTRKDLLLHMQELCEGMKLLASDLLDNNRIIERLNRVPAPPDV
How it was run: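 Recombinant IKKε and substrate were incubated with compound (10-point 1:4 series, top 30 uM final, 1% DMSO) for 90 min at 25° C, then stopped. Substrate-to-product conversion was read by LabChip microfluidic mobility shift; 10 uM staurosporine served as full-inhibition wells.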

[1] = tested on: phosphorylation of the IRF-3 protein in MDA-MB-468 cells; assay: pIRF3 immunocytochemistry cell based assay; settings: Homo sapiens; MDA-MB-468 cells, Poly(I:C) stimulation; read-out: pIRF3 IC50
Description: The purpose of the pIRF3 immunocytochemistry cell based assay was to identify small molecules which modulates TBK/IKKe kinase activity through on target substrate phosphorylation of the IRF-3 protein. On the first day of the experiment, MDA-MB-468 cells were plated in 384 well, black, clear-bottom, Poly D lysine coated plates at a density of 5000 cells/well in 45 ul of complete DMEM and allowed to adhere overnight. On the second day compounds were added to cells at a starting concentration of 10 uM with a serial dilution of 3-fold for a total of 10 points. The cells were incubated for 1 hr at 37° C. Cells were then stimulated with Poly(I:C) at a final concentration of 10 ug/ml, and were incubated for 2 hr at 37° C. Following the incubation, media was removed from the wells and the cells were fixed with 4% PFA for 15 min at RT. Cells were washed at least 3 times with PBS, and then permeabilized with ice-cold methanol for 10 min at RT. The washing step was repeated and the cells were then blocked using 10% goat serum/1% BSA, made up in PBS and allowed to incubate at RT for 1 hr. The cells were washed again and then treated with an anti-pIRF3 antibody at 4° C. overnight (1:250 dilution of Abcam ab76493 in PBS containing 1% BSA). On the third day the primary antibody was washed off and pIRF3 was detected by adding the secondary antibody conjugated to AlexaFluor488 (1:200 dilution of secondary antibody in PBS containing 1% BSA) for 1 hr at RT. Cells were washed and then counterstained with PI/RNase staining buffer for 15 min at RT and read on the Acumen Explorer laser scanning cytometer. The percentage of phosphorylation of the IRF-3 protein was calculated using the following algorithm, a modified version of the mean half width intensity (pIRF3 staining)/(PI staining or # of cells)×100%). IC50 curves were generated using the Genedata software.

TBK1 = biological target: T2, TBK1 (Homo sapiens, UniProt Q9UHD2); assay: TBK Biochemical Assay; settings: read-out: TBK1 IC50
T2 sequence (Q9UHD2 1-729): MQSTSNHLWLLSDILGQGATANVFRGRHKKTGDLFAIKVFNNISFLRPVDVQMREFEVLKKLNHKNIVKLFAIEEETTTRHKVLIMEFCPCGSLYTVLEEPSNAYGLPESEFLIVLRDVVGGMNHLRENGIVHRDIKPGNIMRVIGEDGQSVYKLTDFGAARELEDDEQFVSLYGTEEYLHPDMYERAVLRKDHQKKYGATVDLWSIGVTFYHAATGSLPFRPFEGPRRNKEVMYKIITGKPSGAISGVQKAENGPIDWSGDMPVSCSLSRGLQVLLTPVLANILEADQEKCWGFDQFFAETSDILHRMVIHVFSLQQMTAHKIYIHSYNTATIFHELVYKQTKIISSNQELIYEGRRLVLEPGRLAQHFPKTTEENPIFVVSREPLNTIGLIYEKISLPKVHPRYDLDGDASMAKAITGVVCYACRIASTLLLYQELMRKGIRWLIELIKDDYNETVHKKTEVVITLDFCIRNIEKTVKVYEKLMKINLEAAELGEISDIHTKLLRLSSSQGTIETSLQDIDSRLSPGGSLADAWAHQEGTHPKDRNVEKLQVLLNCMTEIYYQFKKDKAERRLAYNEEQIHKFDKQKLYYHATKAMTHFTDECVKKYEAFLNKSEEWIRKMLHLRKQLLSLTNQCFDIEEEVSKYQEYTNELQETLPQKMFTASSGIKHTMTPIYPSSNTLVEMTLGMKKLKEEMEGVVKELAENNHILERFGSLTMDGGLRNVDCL
How it was run: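 TBK1 enzyme and substrate incubated with compounds (10-point 1:4 dilution, top 30 uM final, 1% DMSO) for 90 min at 25° C, then stopped. Substrate/product peaks read by microfluidic mobility-shift (Caliper LabChip); 10 uM staurosporine as full-inhibition control.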

SMILES | IC50 (IKKε) | IC50 [1] | IC50 (TBK1)
COc1cc(C(=O)N2CC3CN(C)CC3C2)ccc1-c1cc2nccc(-c3ccc(OC4CCOCC4)c(C#N)c3)c2o1 (stereo not drawn) [Compound 9, 5-{2-[2-Methoxy-4-(5-methyl-hexahydro-pyrrolo[3,4-c]pyrrole-2-carbonyl)-phenyl]-furo[3,2-b]pyridin-7-yl}-2-(tetrahydro-pyran-4-yloxy)-benzonitrile] | < 100 nM | < 100 nM | < 100 nM
COc1cc(C(=O)N2CCCCC2CO)ccc1-c1cc2nccc(-c3ccc(OC4CCOCC4)c(C#N)c3)c2o1 (stereo not drawn) [Compound 10] | < 100 nM | < 100 nM | < 100 nM
COc1cc(C(=O)NC2CCOCC2O)ccc1-c1cc2nccc(-c3ccc(OC4CCOCC4)c(C#N)c3)c2o1 (stereo not drawn) [Compound 11, 4-{7-[3-Cyano-4-(tetrahydro-pyran-4-yloxy)-phenyl]-furo[3,2-b]pyridin-2-yl}-N-(3-hydroxy-tetrahydro-pyran-4-yl)-3-methoxy-benzamide] | < 100 nM | 100 to 1000 nM | < 100 nM
COc1cc(C(=O)N2CCN(CCO)CC2)ccc1-c1cc2nccc(-c3ccc(OC4CCOCC4)c(C#N)c3)c2o1 [Compound 13, 5-(2-{4-[4-(2-Hydroxy-ethyl)-piperazine-1-carbonyl]-2-methoxy-phenyl}-furo[3,2-b]pyridin-7-yl)-2-(tetrahydro-pyran-4-yloxy)-benzonitrile] | < 100 nM | < 100 nM | < 100 nM
COc1cc(C(=O)N2CC[C@H](O)C2)ccc1-c1cc2nccc(-c3ccc(OC4CCOCC4)c(C#N)c3)c2o1 [Compound 14, 5-{2-[4-((S)-3-Hydroxy-pyrrolidine-1-carbonyl)-2-methoxy-phenyl]-furo[3,2-b]pyridin-7-yl}-2-(tetrahydro-pyran-4-yloxy)-benzonitrile] | < 100 nM | < 100 nM | < 100 nM
COc1cc(C(=O)N2CCN(C)CC2)ccc1-c1cc2nccc(-c3ccc(OC4CCOCC4)c(C#N)c3)c2o1 [Compound 15, 5-{2-[2-Methoxy-4-(4-methyl-piperazine-1-carbonyl)-phenyl]-furo[3,2-b]pyridin-7-yl}-2-(tetrahydro-pyran-4-yloxy)-benzonitrile] | < 100 nM | < 100 nM | < 100 nM
COc1cc(C(=O)N2CCN(C)CC2)ccc1-c1cc2nccc(-c3ccc(N4CC[C@H](F)C4)c(C#N)c3)c2o1 [Compound 16, 2-((S)-3-Fluoro-pyrrolidin-1-yl)-5-{2-[2-methoxy-4-(4-methyl-piperazine-1-carbonyl)-phenyl]-furo[3,2-b]pyridin-7-yl}-benzonitrile] | < 100 nM | 100 to 1000 nM | < 100 nM
COc1cc(C(=O)N2CC[C@@H](F)C2)ccc1-c1cc2nccc(-c3ccc(OC4CCOCC4)c(C#N)c3)c2o1 [Compound 17, 5-{2-[4-((R)-3-Fluoro-pyrrolidine-1-carbonyl)-2-methoxy-phenyl]-furo[3,2-b]pyridin-7-yl}-2-(tetrahydro-pyran-4-yloxy)-benzonitrile] | < 100 nM | 100 to 1000 nM | < 100 nM
COc1cc(C(=O)N2CC3CCC(O)C3C2)ccc1-c1cc2nccc(-c3ccc(OC4CCOCC4)c(C#N)c3)c2o1 (stereo not drawn) [Compound 18, 5-{2-[4-(4-Hydroxy-hexahydro-cyclopenta[c]pyrrole-2-carbonyl)-2-methoxy-phenyl]-furo[3,2-b]pyridin-7-yl}-2-(tetrahydro-pyran-4-yloxy)-benzonitrile] | < 100 nM | 100 to 1000 nM | < 100 nM
COc1cc(C(=O)N2CC(N3CCCC3)C2)ccc1-c1cc2nccc(-c3ccc(OC4CCOCC4)c(C#N)c3)c2o1 [Compound 20, 5-{2-[2-Methoxy-4-(3-pyrrolidin-1-yl-azetidine-1-carbonyl)-phenyl]-furo[3,2-b]pyridin-7-yl}-2-(tetrahydro-pyran-4-yloxy)-benzonitrile] | < 100 nM | < 100 nM | < 100 nM
COc1cc(C(=O)O)ccc1-c1cc2nccc(-c3ccc(OC4CCOCC4)c(C#N)c3)c2o1 [Compound 21] | < 100 nM | 1000 to 5000 nM | < 100 nM
COc1cc(C(=O)N(C)C)ccc1-c1cc2nccc(-c3ccc(N4CC[C@H](F)C4)c(C#N)c3)c2o1 [Compound 23, 4-{7-[3-Cyano-4-((S)-3-fluoro-pyrrolidin-1-yl)-phenyl]-furo[3,2-b]pyridin-2-yl}-3-methoxy-N,N-dimethyl-benzamide] | < 100 nM | 100 to 1000 nM | < 100 nM
COc1cc(C(=O)N2CC(N(C)C)C2)ccc1-c1cc2nccc(-c3ccc(OC4CCOCC4)c(C#N)c3)c2o1 [Compound 24, 5-{2-[4-(3-Dimethylamino-azetidine-1-carbonyl)-2-methoxy-phenyl]-furo[3,2-b]pyridin-7-yl}-2-(tetrahydro-pyran-4-yloxy)-benzonitrile] | < 100 nM | < 100 nM | < 100 nM
COc1cc(C(=O)N2CCCC3(CCNC3)C2)ccc1-c1cc2nccc(-c3ccc(OC4CCOCC4)c(C#N)c3)c2o1 (stereo not drawn) [Compound 25, 5-{2-[4-(2,7-Diaza-spiro[4.5]decane-7-carbonyl)-2-methoxy-phenyl]-furo[3,2-b]pyridin-7-yl}-2-(tetrahydro-pyran-4-yloxy)-benzonitrile] | < 100 nM | 100 to 1000 nM | < 100 nM
COc1cc(C(=O)N2CCCCC2)ccc1-c1cc2nccc(-c3ccc(OC4CCOCC4)c(C#N)c3)c2o1 [Compound 27, 5-{2-[2-Methoxy-4-(piperidine-1-carbonyl)-phenyl]-furo[3,2-b]pyridin-7-yl}-2-(tetrahydro-pyran-4-yloxy)-benzonitrile] | < 100 nM | 100 to 1000 nM | < 100 nM
COc1cc(C(=O)NC2CN(C)C2)ccc1-c1cc2nccc(-c3ccc(OC4CCOCC4)c(C#N)c3)c2o1 [Compound 28, 4-{7-[3-Cyano-4-(tetrahydro-pyran-4-yloxy)-phenyl]-furo[3,2-b]pyridin-2-yl}-3-methoxy-N-(1-methyl-azetidin-3-yl)-benzamide] | < 100 nM | < 100 nM | < 100 nM
